Each structure is given as a SMILES string.

Consider two molecules from publication PMC8921165, “Preclinical characterization of [^18F]T-008, a novel PET imaging radioligand for cholesterol 24-hydroxylase” (European Journal of Nuclear Medicine and Molecular Imaging, 2021).

The target in assay [1] is T1, Cholesterol 24-hydroxylase (CH24H) (Mus musculus, UniProt Q9WVK8).
T1 construct: gene Cyp46a1
The assay can be described thus: [3H]T-008 saturation radioligand binding; autoradiography in WT vs CH24H KO mouse brain sections.

Assay [2] concerns the target T2, Cholesterol 24-hydroxylase (CH24H) (Macaca mulatta, UniProt A0A5F7ZPE8).
T2 construct: gene CYP46A1
The assay is described as follows: in vivo PET enzyme occupancy, displacement of […]T-008 in rhesus brain.

T1 sequence (Q9WVK8 whole entry): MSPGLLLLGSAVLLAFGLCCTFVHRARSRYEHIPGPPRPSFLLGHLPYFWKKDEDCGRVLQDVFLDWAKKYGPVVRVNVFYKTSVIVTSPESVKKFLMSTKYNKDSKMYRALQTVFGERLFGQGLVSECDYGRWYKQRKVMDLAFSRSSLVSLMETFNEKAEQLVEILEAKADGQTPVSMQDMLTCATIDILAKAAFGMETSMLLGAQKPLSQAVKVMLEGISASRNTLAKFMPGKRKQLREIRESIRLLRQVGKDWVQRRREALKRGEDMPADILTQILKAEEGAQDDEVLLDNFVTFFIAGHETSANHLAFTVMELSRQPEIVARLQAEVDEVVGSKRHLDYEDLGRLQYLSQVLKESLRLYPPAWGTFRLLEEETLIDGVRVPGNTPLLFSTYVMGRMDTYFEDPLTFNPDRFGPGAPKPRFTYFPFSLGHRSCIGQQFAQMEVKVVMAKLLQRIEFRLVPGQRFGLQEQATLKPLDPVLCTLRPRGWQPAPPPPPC
T2 sequence (A0A5F7ZPE8 1-500): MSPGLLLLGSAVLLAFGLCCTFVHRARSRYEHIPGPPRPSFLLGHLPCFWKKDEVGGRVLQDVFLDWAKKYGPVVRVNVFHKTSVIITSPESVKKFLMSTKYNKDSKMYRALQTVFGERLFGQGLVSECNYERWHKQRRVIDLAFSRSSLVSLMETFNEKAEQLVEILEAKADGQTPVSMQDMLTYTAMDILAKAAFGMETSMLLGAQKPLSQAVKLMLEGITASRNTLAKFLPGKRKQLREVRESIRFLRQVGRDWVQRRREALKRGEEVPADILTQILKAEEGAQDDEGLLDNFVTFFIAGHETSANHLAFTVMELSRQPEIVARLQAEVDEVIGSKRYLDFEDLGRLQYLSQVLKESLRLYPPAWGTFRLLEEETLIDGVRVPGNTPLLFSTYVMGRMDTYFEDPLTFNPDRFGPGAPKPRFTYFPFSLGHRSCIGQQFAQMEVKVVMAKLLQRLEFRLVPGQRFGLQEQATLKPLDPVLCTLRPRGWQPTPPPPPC

One may read the Kd as the equilibrium constant for the complex coming apart. Regarding `O=C(C1CCN(c2cncnc2-c2ccc(F)cc2)CC1)N1CC(F)C1` [T-008, (3-fluoroazetidin-1-yl){1-[4-(4-fluorophenyl)pyrimidin-5-yl]piperidin-4-yl}methanone], the affinity in assay [1], expressed as Kd, was 14 ± 1 nM.

By EC50 is commonly meant the midpoint of the concentration-response curve. The molecule `O=C(c1cccnc1-c1ccncc1)N1CCC(O)(Cc2ccccc2)CC1` [soticlestat, (4-benzyl-4-hydroxypiperidin-1-yl)(2,4′-bipyridin-3-yl) methanone] had an EC50 in assay [2] of 3.39 nM.
